Reference: US4263301A, “β-Phenyl-β-hydroxyethylaminoalkyltheophyllines as inhibitors of biosynthesis of triglycerides” (Shell Oil Company, priority 1980, dated 1981)

System: synthesis of triglycerides (enzyme from pig adipose tissue)
Assay: Inhibition of triglyceride synthesis by enzyme preparation (homogenate supernatant) from pig adipose tissue, 14C-glycerol-3-phosphate incorporation
Assay type: biochemical
Conditions: test compound 1000 micrograms per milliliter, 5% DMSO, incubated eight minutes at 37° C; compared to controls; average of two animals, three replicates each
Experimental: The manner in which they cause this effect has not been established. Their effectiveness for this purpose has been ascertained by the following procedure.
An enzyme was prepared by homogenizing one gram of slices from pig adipose tissue, each slice being approximately 0.3 mm thick, in one-milliliter portions of a liquid medium (Liquid A). The homogenate then was centrifuged (10,000 g×15 minutes), and the supernatant phase (the enzyme) was poured through cheesecloth to remove fat that has risen to the top of the centrifuge tubes.
Liquid A had the following composition (in water):
0.15 M potassium chloride, 1 mM ethylenediaminetetracetic acid, 10 mM Hepes (N-2-hydroxyethylpiperazine-N'-2-ethanesulfonic acid), 1 mM DTT (dithiothreitol), pH=7.0.
A solution of the test compound (Liquid B) was prepared: 10 milligrams of test compound plus 0.5 milliliter dimethylsulfoxide (DMSO) plus 1.83 milliliters of glass-distilled water.
A premix (Liquid C) was freshly prepared before each test, from the following components. […]
0.25 milliliter of enzyme then was added. […] Ten milliliters of a 2:1 (v/v) mixture of toluene and Triton X-100 containing 0.27% New England Nuclear Omnifluor was added, and the radioactivity was determined in a liquid scintillation counter. […]
The percent inhibition by the test compound compared to the controls […] was determined.

Percent Inhibition | Compound
95 | Cl.Cn1c(=O)c2c(ncn2CCNCC(O)c2cc(C(C)(C)C)c(O)c(C(C)(C)C)c2)n(C)c1=O (centres unmarked) [7-(2-(2-(3,5-bis-(1,1-dimethylethyl)-4-hydroxyphenyl)-2-hydroxyethylamino)ethyl)-3,7-dihydro-1,3-dimethyl-1H-purine-2,6-dione, hydrochloride]
93 | Cl.Cn1c(=O)c2c(ncn2CCCNCC(O)c2cc(C(C)(C)C)c(O)c(C(C)(C)C)c2)n(C)c1=O (centres unmarked) [7-(3-(2-(3,5-bis-(1,1-dimethylethyl)-4-hydroxyphenyl)-2-hydroxyethylamino)propyl)-3,7-dihydro-1,3-dimethyl-1H-purine-2,6-dione, hydrochloride]
